The source of these data is patent US11903936B2, “Anti-malarial agents” (THE BOARD OF REGENTS OF THE UNIVERSITY OF TEXAS SYSTEM, priority 2019, dated 2024).

One series deals with Human DHODH (Homo sapiens (Human), UniProt Q02127). Put plainly: DHODH kinetic analysis (DCIP assay). The class given is biochemical. Particulars: 25° C.
A short description of another series: in vitro. The conditions noted are these: human.
The target in series [1] is T1, Dog DHODH (Canis lupus familiaris, UniProt A0A8I3MWX2). Put plainly: biochemical.
Protocol: (§1) DHODH Kinetic Analysis. […] Inhibitor stocks (100 mM) were prepared in DMSO in amber bottles. A 3-fold dilution series was generated in DMSO from these stocks and then dispensed into assay buffer via a 1/100 dilution to generate a final concentration range of 0.001-100 μM (1% DMSO final). Data were collected using triplicate technical replicates and where indicated additional biological replicates were collected (the number of biological replicates is provided in parenthesis). IC50's were determined by fitting the data to log (inhibitor) vs. response equation Y=Bottom+(Top−Bottom)/(1+10^((X−Log IC50))) in GraphPad Prism.
The target of the next series is Mouse DHODH (Mus musculus (Mouse), UniProt O35435). As to the kind of experiment: DHODH kinetic analysis (DCIP assay). It is filed as biochemical. Particulars: 25° C.
The next series deals with Rat DHODH (Rattus norvegicus (Rat), UniProt Q63707). Put plainly: DHODH kinetic analysis (DCIP assay). It is filed as biochemical. Particulars: 25° C.
The next series has as its target P. vivax DHODH (Plasmodium vivax, UniProt A5K1N1). As to the kind of experiment: biochemical. It is filed as biochemical.
In a further series the target is P. falciparum DHODH (Plasmodium falciparum (isolate 3D7), UniProt Q08210). It is filed as biochemical. The conditions noted are these: 25° C., DCIP assay.
Series [2] concerns the target T1, Dog DHODH. Particulars: read-out: Dog DHODH IC50; 25° C., DCIP assay.
Protocol: as §1
Series [3] has as its system P. vivax clinical isolates. The conditions noted are these: ex vivo, separate study in Indonesia, previously reported; cited from earlier work.
Series [4] has as its system P. falciparum clinical isolates. Particulars: ex vivo, separate study in Indonesia, previously reported; cited from earlier work.
In series [5] the test system is parasitized human erythrocytes. As to the kind of experiment: in vivo efficacy in the humanized SCID mouse model. Particulars: for DOR (day of recrudescence): 50 mg/kg dose b.i.d. for 6 days; for CED90: estimated average blood concentration that induces no net parasite growth.
Description: During the study, samples of peripheral blood were taken from mice to measure the concentration of compounds and/or their metabolites.
DoR was estimated by linear interpolation of % parasitemia the day before the rise to PO and the % parasitemia the day after reaching PO.
Series [6] is described as follows: metabolic stability, Human Clint.
In another series the test system is P. falciparum 3D7. As to the kind of experiment: P. falciparum growth and inhibition assay (SYBR Green). It is filed as cell-based. The conditions noted are these: chloroquine-sensitive 3D7 strain, 72 h, albuMAX media.
Another series in a line: physchem. Particulars: pH 6.5, fassif.
[7] abbreviates: 25° C., DCIP assay, read-out: P. vivax DHODH IC50.

Converted amounts (≈) assume the structure as drawn. Where two headings read alike, the source gives them in different places.

Mouse DHODH, sequence (O35435 whole entry): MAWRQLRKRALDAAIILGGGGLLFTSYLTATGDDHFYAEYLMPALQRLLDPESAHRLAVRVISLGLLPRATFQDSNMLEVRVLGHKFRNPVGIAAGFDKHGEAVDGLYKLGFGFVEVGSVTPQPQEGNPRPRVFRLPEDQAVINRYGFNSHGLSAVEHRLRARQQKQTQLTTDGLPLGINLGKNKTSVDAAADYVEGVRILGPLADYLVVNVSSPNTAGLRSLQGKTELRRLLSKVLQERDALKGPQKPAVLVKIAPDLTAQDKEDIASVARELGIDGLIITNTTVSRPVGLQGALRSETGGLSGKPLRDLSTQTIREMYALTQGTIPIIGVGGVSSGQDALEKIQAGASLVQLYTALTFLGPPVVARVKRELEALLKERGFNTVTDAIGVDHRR
Human DHODH, sequence (Q02127 whole entry): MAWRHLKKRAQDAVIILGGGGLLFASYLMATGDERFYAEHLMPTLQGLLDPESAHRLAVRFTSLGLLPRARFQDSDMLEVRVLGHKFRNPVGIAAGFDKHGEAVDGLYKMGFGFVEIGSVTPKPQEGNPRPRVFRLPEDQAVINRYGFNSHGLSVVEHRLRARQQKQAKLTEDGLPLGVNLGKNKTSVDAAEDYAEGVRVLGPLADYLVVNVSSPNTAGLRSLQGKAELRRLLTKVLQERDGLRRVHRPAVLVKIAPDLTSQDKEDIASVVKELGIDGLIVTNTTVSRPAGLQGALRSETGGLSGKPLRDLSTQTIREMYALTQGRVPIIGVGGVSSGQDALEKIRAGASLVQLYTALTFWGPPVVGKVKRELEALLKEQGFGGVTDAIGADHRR
T1 sequence (A0A8I3MWX2 1-406): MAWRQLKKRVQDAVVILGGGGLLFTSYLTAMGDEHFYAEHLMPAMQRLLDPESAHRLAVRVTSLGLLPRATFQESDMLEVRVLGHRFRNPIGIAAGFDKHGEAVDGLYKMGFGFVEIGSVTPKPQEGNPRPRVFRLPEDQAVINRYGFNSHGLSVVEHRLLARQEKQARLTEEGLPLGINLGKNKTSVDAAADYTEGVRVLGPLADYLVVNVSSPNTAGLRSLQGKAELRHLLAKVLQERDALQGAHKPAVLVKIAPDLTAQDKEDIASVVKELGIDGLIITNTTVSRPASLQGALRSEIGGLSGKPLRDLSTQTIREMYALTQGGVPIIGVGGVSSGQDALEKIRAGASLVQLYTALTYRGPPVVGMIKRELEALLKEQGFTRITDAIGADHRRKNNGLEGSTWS
Rat DHODH, sequence (Q63707 whole entry): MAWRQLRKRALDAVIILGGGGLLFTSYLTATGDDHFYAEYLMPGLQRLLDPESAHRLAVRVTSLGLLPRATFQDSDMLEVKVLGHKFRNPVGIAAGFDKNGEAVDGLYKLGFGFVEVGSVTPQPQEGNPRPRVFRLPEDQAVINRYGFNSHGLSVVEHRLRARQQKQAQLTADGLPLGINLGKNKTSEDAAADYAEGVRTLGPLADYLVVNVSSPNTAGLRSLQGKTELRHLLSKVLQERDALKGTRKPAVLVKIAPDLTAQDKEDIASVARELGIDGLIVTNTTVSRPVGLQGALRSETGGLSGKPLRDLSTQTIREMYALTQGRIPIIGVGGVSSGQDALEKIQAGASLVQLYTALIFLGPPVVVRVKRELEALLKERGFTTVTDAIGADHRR
P. vivax DHODH, sequence (A5K1N1 1-572): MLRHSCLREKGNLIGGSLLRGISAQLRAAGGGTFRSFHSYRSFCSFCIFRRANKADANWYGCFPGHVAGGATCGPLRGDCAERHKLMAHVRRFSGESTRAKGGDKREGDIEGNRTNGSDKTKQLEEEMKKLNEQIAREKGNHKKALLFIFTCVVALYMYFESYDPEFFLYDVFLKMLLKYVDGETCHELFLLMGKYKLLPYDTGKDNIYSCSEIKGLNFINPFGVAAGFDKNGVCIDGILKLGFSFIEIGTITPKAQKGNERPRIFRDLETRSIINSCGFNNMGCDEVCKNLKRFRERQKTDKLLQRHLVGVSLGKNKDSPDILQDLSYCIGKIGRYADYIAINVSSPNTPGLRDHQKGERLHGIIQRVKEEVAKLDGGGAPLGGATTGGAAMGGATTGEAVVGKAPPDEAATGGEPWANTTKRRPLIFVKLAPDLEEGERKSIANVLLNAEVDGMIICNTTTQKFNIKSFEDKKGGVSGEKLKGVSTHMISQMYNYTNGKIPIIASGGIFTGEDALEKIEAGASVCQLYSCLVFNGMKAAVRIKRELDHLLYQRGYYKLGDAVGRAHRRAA
P. falciparum DHODH, sequence (Q08210 24-569 limits assumed): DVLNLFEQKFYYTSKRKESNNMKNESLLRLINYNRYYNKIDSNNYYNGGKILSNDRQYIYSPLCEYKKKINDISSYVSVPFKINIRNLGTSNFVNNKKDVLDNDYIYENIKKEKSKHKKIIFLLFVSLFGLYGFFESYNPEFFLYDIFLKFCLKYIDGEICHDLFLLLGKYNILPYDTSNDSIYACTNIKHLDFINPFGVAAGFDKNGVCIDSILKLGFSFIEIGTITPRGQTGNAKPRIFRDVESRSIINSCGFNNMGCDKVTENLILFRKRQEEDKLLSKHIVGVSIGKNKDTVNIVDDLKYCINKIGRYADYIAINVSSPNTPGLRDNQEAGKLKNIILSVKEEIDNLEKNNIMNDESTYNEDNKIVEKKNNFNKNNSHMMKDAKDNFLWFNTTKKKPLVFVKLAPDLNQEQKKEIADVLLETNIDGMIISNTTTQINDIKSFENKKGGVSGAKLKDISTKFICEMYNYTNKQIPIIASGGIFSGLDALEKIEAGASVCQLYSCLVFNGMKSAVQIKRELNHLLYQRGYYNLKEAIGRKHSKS
Protocol for Human DHODH: as §1
Protocol for Mouse DHODH: as §1
Protocol for P. falciparum 3D7: P. falciparum growth and inhibition assays. […] DSMO inhibitor stocks (as above) were diluted in DMSO using a 2 or 3-fold dilution series and then dispensed into media at 10× the final concentrations. A second step into media led to final inhibitor concentrations ranging from 0.001-30 μM and a final DMSO concentration of 0.2%. […] Data were collected using triplicate technical replicates and where indicated additional biological replicates were collected (the number of biological replicates is provided in parenthesis).
Protocol for P. falciparum DHODH: Inhibitor stocks (100 mM) were prepared in DMSO in amber bottles. A 3-fold dilution series was generated in DMSO from these stocks and then dispensed into assay buffer via a 1/100 dilution to generate a final concentration range of 0.001-100 μM (1% DMSO final). Data were collected using triplicate technical replicates and where indicated additional biological replicates were collected (the number of biological replicates is provided in parenthesis). IC50's were determined by fitting the data to log (inhibitor) vs. response equation Y=Bottom+(Top−Bottom)/(1+10^((X−Log IC50))) in GraphPad Prism.
Protocol for P. vivax DHODH: as §1
Protocol for Rat DHODH: as §1

The term IC50 denotes the concentration at which inhibition is half-maximal. The term microsomal CLint denotes a measure of how fast metabolising enzymes remove a compound, apart from limits set by blood flow. Lower therefore signals slow turnover. Turning to `Cc1c(C2(c3ccc(C(F)(F)F)nc3)CC2)c[nH]c1C(=O)NC(C)c1c[nH]cn1` (single isomer, unassigned) [Compound 20, N-(1-(1H-imidazol-4-yl)ethyl)-3-methyl-4-(1-(6-(trifluoromethyl)pyridin-3-yl)cyclopropyl)-1H-pyrrole-2-carboxamide], the IC50 against Human DHODH was > 100 µM. The microsomal CLint in the series “in vitro” turned out to be 35 µL/min/mg.
As to `Cc1cc(C(C)NC(=O)c2[nH]cc(Cc3ccc(C(F)(F)F)nc3)c2C)no1` (single isomer, unassigned) [Compound 29, 3-methyl-N-(1-(5-methylisoxazol-3-yl)ethyl)-4-((6-(trifluoromethyl)pyridin-3-yl)methyl)-1H-pyrrole-2-carboxamide], the IC50 at Human DHODH, against Dog DHODH [1], on Mouse DHODH and at Rat DHODH was > 100 µM in each case. This molecule also showed a microsomal CLint in the series “in vitro” of 29 µL/min/mg.
For `Cc1c(C2(c3ccc(C(F)(F)F)nc3)CC2)c[nH]c1C(=O)NC(C)c1cc(C(N)=O)[nH]n1` (stereo not drawn) [Compound 14], the IC50 at P. vivax DHODH (setting [7]) is 0.17 µM; against P. falciparum DHODH it was 0.14 ± 0.057 µM; at Human DHODH, > 100 µM; at Mouse DHODH, > 100 µM; at Rat DHODH it was > 100 µM; on Dog DHODH [2], > 100 µM.
With `Cc1c(C2(c3ccc(C(F)(F)F)nc3)CC2)c[nH]c1C(=O)NC(C)c1cn[nH]c1` (single isomer, unassigned) [Compound 8, N-(1-(1H-pyrazol-4-yl)ethyl)-3-methyl-4-(1-(6-(trifluoromethyl)pyridin-3-yl)cyclopropyl)-1H-pyrrole-2-carboxamide], the IC50 against Human DHODH is > 100 µM. The molecule further showed a microsomal CLint in the series “in vitro” of 66 µL/min/mg.
The term EC50 denotes the concentration needed to bring the measured effect to its halfway point. As for `Cc1cc(Nc2ccc(S(F)(F)(F)(F)F)cc2)n2nc(C(C)(F)F)nc2n1` [DSM265, 2-(1,1-difluoroethyl)-5-methyl-N-[4-(pentafluoro-λ^6-sulfanyl)phenyl]-[1,2,4]triazolo[1,5-a]pyrimidin-7-amine, reference compound], the results for the EC50 in series [3] and in [4] were 0.92 µM and 0.19 µM, respectively. In addition, the “FaSSIF Solubility pH 6.5 5 h” value (FaSSIF, pH 6.5, 5 h) stood at 5.1 μg/ml. The microsomal CLint in “in vitro” was < 7 µL/min/mg. In series [5] (SCID mouse), the “DOR (day of recrudescence)” value is 21. This molecule had an AUCED90 in [5] (SCID mouse, b.i.d. for 6 days) of 35.4 μM · h/day. The ED90 in series [5] (SCID mouse, b.i.d. for 6 days, clears 90% of parasites 24 h post final dose on day 7) is 16.7 mg/kg. For the same molecule, the CED90 in series [5] (SCID mouse, b.i.d. for 6 days) is 1.48 µM/day.
In the case of `Cc1c(Cc2ccc(C(F)(F)F)nc2)c[nH]c1C(=O)NC(C)c1cn[nH]c1` (stereo not drawn) [Compound 32], the concentration for half-maximal inhibition (IC50) was 0.043 µM at P. vivax DHODH (setting [7]); 0.047 ± 0.0079 µM on P. falciparum DHODH; > 100 µM against Human DHODH; > 100 µM on Mouse DHODH; > 100 µM at Rat DHODH; > 100 µM on Dog DHODH [2]. Moreover, the “FaSSIF Solubility pH 6.5 5 h” value (pH 6.5) turned out to be 34 μg/ml. In addition, the “Human Clint” value in [6] came out at 20 μL/min/mg protein.
With `Cc1c(C2(c3ccc(C(F)(F)F)nc3)CC2)c[nH]c1C(=O)NC(C)c1nc[nH]n1` (single isomer, unassigned) [Compound 2, 3-methyl-N-[1-(1H-1,2,4-triazol-3-yl)ethyl]-4-{1-[6-(trifluoromethyl)pyridin-3-yl]cyclopropyl}-1H-pyrrole-2-carboxamide], the IC50 against Human DHODH, against Dog DHODH [1], at Mouse DHODH and at Rat DHODH was > 100 µM throughout. In addition, the microsomal CLint in “in vitro” worked out at 11 µL/min/mg. For the same molecule, in series [5] (SCID mouse), the “DOR (day of recrudescence)” value is given as 22. Further, in series [5] (SCID mouse, b.i.d. for 6 days), the AUCED90 is reported as 35.6 μM · h/day. In series [5] (SCID mouse, b.i.d. for 6 days), the CED90 is 1.48 µM/day. The ED90 in series [5] (mouse, in vivo) was 25.6 mg/kg.
Consider `Cc1c(C2(c3ccc(C(F)(F)F)nc3)CC2)c[nH]c1C(=O)NC(C)c1cc(C#N)[nH]n1` (single isomer, unassigned) [Compound 17, N-(1-(5-cyano-1H-pyrazol-3-yl)ethyl)-3-methyl-4-(1-(6-(trifluoromethyl)pyridin-3-yl)cyclopropyl)-1H-pyrrole-2-carboxamide], for which the IC50 at Human DHODH was > 100 µM. In the series “in vitro”, this molecule yielded a microsomal CLint of 16 µL/min/mg.
As for “N-(1-(1H-1,2,4-triazol-3-yl) ethyl)-4-(3-fluoro-4-(trifluoromethyl)benzyl)-3-methyl-1H-pyrrole-2-carboxamide [Compound 5]”, the IC50 was 0.061 µM at P. vivax DHODH (setting [7]), 0.11 µM against P. falciparum DHODH and > 100 µM at Human DHODH. This molecule also returned an EC50 in the series on P. falciparum 3D7 of 0.039 µM.
Consider `Cc1cc(C(C)NC(=O)c2[nH]cc(C3(c4ccc(C(F)(F)F)nc4)CC3)c2C)n[nH]1` (single isomer, unassigned) [Compound 11, 3-methyl-N-[1-(5-methyl-1H-pyrazol-3-yl)ethyl]-4-{1-[6-(trifluoromethyl)pyridine-3-yl]cyclopropyl}-1H-pyrrole-2-carboxamide], for which the concentration for half-maximal inhibition (IC50) against Human DHODH was > 100 µM. For the same molecule, the microsomal CLint in “in vitro” is 40 µL/min/mg.
The term solubility denotes the dissolved amount per volume that the medium holds. High values mean a readily soluble substance, low ones a poorly soluble substance. For the molecule `Cc1c(Cc2ccc(C(F)(F)F)nc2)c[nH]c1C(=O)NC(C)c1cnn(C)c1` (single isomer, unassigned) [Compound 35, 3-methyl-N-(1-(1-methyl-1H-pyrazol-4-yl)ethyl)-4-((6-(trifluoromethyl)pyridin-3-yl)methyl)-1 H-pyrrole-2-carboxamide], the IC50 at P. vivax DHODH was 0.036 µM; against Human DHODH, > 100 µM; against Dog DHODH [1], > 100 µM; against Mouse DHODH it was > 100 µM; at Rat DHODH, > 100 µM. In “physchem”, this molecule showed a solubility of 60 µg/mL (≈ 153 µM).
